Experimental data as given in patent US11141462B2, “Method for the treatment or prevention of osteoarthritis” (Chondropeptix B.V., priority 2016, dated 2021).

Assays:
Assay type in all cases: cell-based, human
[1] = tested on: Isolated chondrocytes from OA patients; assay: Treatment of isolated chondrocytes from OA patients, gene expression by qRT-PCR; conditions: 1 nM, 24 h; qRT-PCR normalized for 28S rRNA; n=6
Protocol: Isolated chondrocytes from OA patients (n=6) were treated with BMP-7 (1 nM) or the 12-mer peptide according to SEQ ID NO: 43 (1 nM) for 24 h. Pro-chondrogenic (FIG. 8A) and hypertrophic (FIGS. 8B, 8C and 8D) gene expression was determined via qRT-PCR and normalized for 28S rRNA levels.

[2] = tested on: cartilage explants from OA patient's knee articular cartilage; assay: Treatment of cartilage explants, hypertrophic gene expression by qRT-PCR; conditions: 10 nM, 24 h
Protocol: 4 mm 2 cartilage explants were taken from non-lesion areas of OA patient's knee articular cartilage (n=5) and randomly assigned to different experimental treatment conditions (4 explants per treatment group). After a 24 h equilibration period the explants were treated with BMP-7 (1 nM) or the 12-mer peptide according to SEQ ID NO: 43 (10 nM) for 24 h. Hypertrophic gene expression was determined via qRT-PCR and normalized for 28S rRNA levels. After treatment with BMP-7 or the 12 mer we observed a downregulation of pro-hypertrophic genes, such as Col10a1 (FIG. 9A) and MMP13 (FIG. 9B).

[3] = tested on: OA articular chondrocytes; assay: OA chondrocyte phenotype gene expression screening of BMP-7 peptides (RT-qPCR); parameters: key to COX-2 / COL2A1 / SOX9: [+] denotes a significantly increased expression of chondrogenic marker genes SOX9 and COL2A1, or a significantly decreased expression of OA phenotypic marker COX-2 in OA articular chondrocytes, in comparison to untreated OA articular chondrocytes; key to IL-6 / ADAMTS5 / COL10A / BAPX1/NKX3.2 / ALP / RUNX2: —: [-] denotes the absence of a significant effect or a significantly decreased expression of chondrogenic marker genes BAPX1/NKX3.2, or a significantly increased expression of OA phenotypic markers IL-6, ADAMTS5, COL10A, ALP and RUNX2 in OA articular chondrocytes, in comparison to untreated OA articular chondrocytes; conditions: for COL2A1 / COX-2 / SOX9: Table 5; for suppression of the OA chondrocyte phenotype: independent of the tested concentration (1000, 100, 10 and 1 nM were tested)
Protocol: (§1) FIG. 2: The action of 20-mer peptides (10 nM) of SEQ ID NO: 2-17 (peptides with 1 or 2 amino acids intervals (18-19 amino acid overlap)) and a random peptide with a sequence according to SEQ ID NO: 49 on the expression of ADAMTS5 was determined on a validated pool of passage 2 OA human articular chondrocytes (n=18) and compared to full-length recombinant BMP-7 (1 nM). Samples were harvested after 24 hours and analyzed for indicated genes by RT-qPCR (normalized for 28S rRNA expression and relative to control conditions (no peptide exposure)). In the graphs, numbers on the x-axis represent individual peptides according to their SEQ ID NO's, error bars represent mean±SEM, statistical differences were calculated (one-way ANOVA with bonferroni correction) to control condition. *=p<0.05 lower than control condition for ADAMTS5. Random peptide is a peptide according to SEQ ID NO: 49.
as §1, with “3:” for “2:”, “ALP” for “ADAMTS5”, “ALP.” for “ADAMTS5.”
as §1, with “4:” for “2:”, “BAPX1/NKX3.2” for “ADAMTS5”, “BAPX1/NKX3.2.” for “ADAMTS5.”
as §1, with “5:” for “2:”, “COL10A1” for “ADAMTS5”, “COL10A1.” for “ADAMTS5.”
FIG. 6: The action of 20-mer peptides (10 nM) of SEQ ID NO: 2-17 (peptides with 1 or 2 amino acids intervals (18-19 amino acid overlap)) and a random peptide with a sequence according to SEQ ID NO: 49 on the expression of IL-6 was determined on a validated pool of passage 2 OA human articular chondrocytes (n=18) and compared to full-length recombinant BMP-7 (1 nM). […]

[4] = Table 2 (FIG. 2: 10 nM, 24 hours, RT-qPCR, 28S rRNA normalized), vs untreated OA articular chondrocytes
[5] = Table 2 (FIG. 3: 10 nM, 24 hours, RT-qPCR, 28S rRNA normalized), vs untreated OA articular chondrocytes
[6] = Table 2 (FIG. 4: 10 nM, 24 hours, RT-qPCR, 28S rRNA normalized), vs untreated OA articular chondrocytes
[7] = Table 2 (FIG. 5: 10 nM, 24 hours, RT-qPCR, 28S rRNA normalized), vs untreated OA articular chondrocytes
[8] = Table 2 (FIG. 6: 10 nM, 24 hours, RT-qPCR, 28S rRNA normalized), vs untreated OA articular chondrocytes
[9] = Table 2 (FIG. 7: 10 nM, 24 hours, RT-qPCR, 28S rRNA normalized), vs untreated OA articular chondrocytes
[10] = gene expression in OA articular chondrocytes vs untreated
[11] = Table 1, gene expression in OA articular chondrocytes vs untreated

Row | Substance | ADAMTS5 [3, 4] | ALP [3, 5] | BAPX1/NKX3.2 [3, 6] | COL10A [3, 7] | IL-6 [3, 8] | RUNX2 [3, 9] | COL2A1 [3, 10] | COX-2 [3, 10] | SOX9 [3, 10] | other results
1 | YSEGESAFPLNS (listed as Homo sapiens) [SEQ ID NO: 43] |  |  |  |  |  |  |  |  |  | COL10A1 (pro-hypertrophic) gene expression [1]: downregulation; COX-2 (pro-hypertrophic) gene expression [1]: downregulation; Col2a1 (pro-chondrogenic) gene expression [1]: upregulation; RUNX2 (pro-hypertrophic) gene expression [1]: downregulation; Col10a1 gene expression [2]: downregulation; MMP13 gene expression [2]: downregulation
2 | 17 (SSNVILKKYRNMVVRASGSH; listed as Homo sapiens) [compound 17] | + | + | + | + | + | + | + | + | + | 
3 | 24 (AIVQTLVHFINPETVPKPCC; listed as Homo sapiens) [compound 24] |  |  |  |  |  |  |  |  |  | ADAMTS5 [3, 11]: —; ALP [3, 11]: —; BAPX1/NKX3.2 [3, 11]: —; COL10A [3, 11]: —; IL-6 [3, 11]: —; RUNX2 [3, 11]: —
4 | 8 (SSAPTQLNAISVLYFDDSSN; listed as Homo sapiens) [compound 8] | + | + | + | + | + | + | + | + | + | 
5 | VPKPSSAPTQLNAISVLYFD (listed as Homo sapiens) [SEQ ID NO: 5] |  |  |  |  |  |  |  |  |  | activity in the assays as employed herein (table 2) ([3]; peptides with additional amino acid N-terminal of position 100): lost its activity
6 | 3 (NPETVPKPSSAPTQLNAISV; listed as Homo sapiens) [compound 3] | — | — | — | — | — | — |  |  |  | 
7 | 6 (PKPSSAPTQLNAISVLYFDD; listed as Homo sapiens) [compound 6] | + | + | + | + | + | + | + | + | + | 
8 | 19 (STGSKQRSQNRSKTPKNQEA; listed as Homo sapiens) [compound 19] |  |  |  |  |  |  |  |  |  | ADAMTS5 [3, 11]: —; ALP [3, 11]: —; BAPX1/NKX3.2 [3, 11]: —; COL10A [3, 11]: —; IL-6 [3, 11]: —; RUNX2 [3, 11]: —
9 | 10 (TQLNAISVLYFDDSSNVILK; listed as Homo sapiens) [compound 10] | + | + | + | - | + | + | + | + | + | 
10 | 16 (DSSNVILKKYRNMVVRASGS; listed as Homo sapiens) [compound 16] | + | + | + | + | + | — | + | + | + | 
11 | TQLNAISVLYFDDSSNVILK (listed as Homo sapiens) [SEQ ID NO: 10] |  |  |  |  |  |  |  |  |  | suppression of the OA chondrocyte phenotype [3]: efficiently suppressed the OA chondrocyte phenotype
12 | 20 (KTPKNQEALRMANVAENSSSSSDQRQACKK; listed as Homo sapiens) [compound 20] |  |  |  |  |  |  |  |  |  | ADAMTS5 [3, 11]: —; ALP [3, 11]: —; BAPX1/NKX3.2 [3, 11]: —; COL10A [3, 11]: —; IL-6 [3, 11]: —; RUNX2 [3, 11]: —
13 | LNAISVLYFDDSSNVILKKY (listed as Homo sapiens) [SEQ ID NO: 11] |  |  |  |  |  |  |  |  |  | suppression of the OA chondrocyte phenotype [3]: efficiently suppressed the OA chondrocyte phenotype
14 | 14 (LYFDDSSNVILKKYRNMVVR; listed as Homo sapiens) [compound 14] | + | + | + | + | + | — | + | + | + | 
15 | 25 (CCAPTQLNAISVLYFDDSSN; listed as Homo sapiens) [compound 25] |  |  |  |  |  |  |  |  |  | ADAMTS5 [3, 11]: —; ALP [3, 11]: —; BAPX1/NKX3.2 [3, 11]: —; COL10A [3, 11]: —; IL-6 [3, 11]: —; RUNX2 [3, 11]: —
